The text below walks through data of patent US10954253B2, “1,2-dihydro-3H-pyrazolo[3,4-d]pyrimidin-3-one derivative as Wee1 inhibitor” (SHIJIAZHUANG SAGACITY NEW DRUG DEVELOPMENT CO., LTD., priority 2017, dated 2021).

Broadly, the IC50 is the midpoint of a concentration-inhibition curve.

The experiment deals with Wee1 (Homo sapiens (Human), UniProt P30291). The experiment can be described thus: In vitro enzymatic inhibitory activity (33P-ATP filter-binding kinase assay, MBP substrate). The format is biochemical. The note with it: Wee-1 150 nM, MBP 20 μM. On the procedure: The compounds of the present invention for experimental use were all self-prepared, and their chemical names and structural formulas are shown in the preparation embodiments of the respective compounds. The experimental tests were carried out in Reaction Biology Corporation, USA, and the experimental results were provided by the company. Basic reaction buffer: 20 mM hydroxyethylpiperazine ethanesulfuric acid (pH 7.5), 10 mM magnesium chloride, 1 mM EGTA, 0.02% Brij35, 0.02 mg/mL bovine serum albumin, 0.1 mM Na3VO4, 2 mM DTT, 1% DMSO Enzyme: Wee-1 concentration is 150 nM Matrix: MBP concentration is 20 μM The tested compound was formulated into a 5 mM solution with 100% DMSO, and a 10 points 3-fold gradient dilution was performed with DMSO through an automated pipetting station epMotion 5070. 1. Fresh matrix configuration reaction buffer was prepared; 2. The Wee-1 was added into the matrix solution and shaked gently; 3. DMSO solution of the compound were added into the kinase reaction mixture using an acoustic technique (Echo 550; nanoliter range) and incubated for 20 minutes at room temperature; 4. ^33P-ATP (specific activity, 10 μCi/μL) was added into the reaction mixture to stimulate the reaction; 5. Incubated for 2 hours at room temperature; 6. Kinase activity was detected by filter-binding method.
Sequence of Wee1 (P30291 whole entry): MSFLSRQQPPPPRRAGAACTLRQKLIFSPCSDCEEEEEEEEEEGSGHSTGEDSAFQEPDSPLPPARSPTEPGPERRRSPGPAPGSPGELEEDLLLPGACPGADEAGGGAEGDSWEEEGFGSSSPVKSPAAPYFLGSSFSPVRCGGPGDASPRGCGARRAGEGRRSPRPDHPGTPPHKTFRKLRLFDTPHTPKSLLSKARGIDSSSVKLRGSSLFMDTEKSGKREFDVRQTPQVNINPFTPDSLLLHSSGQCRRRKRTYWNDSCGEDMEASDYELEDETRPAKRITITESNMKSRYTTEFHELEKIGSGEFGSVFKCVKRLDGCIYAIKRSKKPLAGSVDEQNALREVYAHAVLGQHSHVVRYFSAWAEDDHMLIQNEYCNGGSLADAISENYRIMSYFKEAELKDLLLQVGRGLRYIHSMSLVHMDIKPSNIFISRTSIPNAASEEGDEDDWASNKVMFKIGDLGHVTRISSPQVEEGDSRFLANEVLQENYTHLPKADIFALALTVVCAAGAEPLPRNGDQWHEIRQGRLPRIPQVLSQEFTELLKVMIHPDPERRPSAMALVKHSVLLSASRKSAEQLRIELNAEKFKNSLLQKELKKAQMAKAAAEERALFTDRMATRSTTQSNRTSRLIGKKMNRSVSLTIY

Molecules are shown by their SMILES.

The compound `C=CCn1c(=O)c2cnc(Nc3ccc(N4CCC5(CCN(C)CC5)CC4)cc3)nc2n1-c1cccc(C(F)(F)F)n1` [Embodiment 46, 2-allyl-6-((4-(9-methyl-3,9-diazaspiro[5.5]undecane-3-yl)phenyl)amino)-1-(6-(trifluoromethyl)pyridin-2-yl)-1H-pyrazolo[3,4-d]pyrimidine-3(2H)-one] showed an IC50 of 44.6 nM. This counts as double-digit nanomolar. In turn, `C=CCn1c(=O)c2cnc(Nc3ccc(N4CCC5(CCN(C)CC5)CC4)cc3)nc2n1-c1cccc(C2(O)COC2)n1` [Embodiment 42, 2-allyl-1-(6-(3-hydroxyoxetan-3-yl)pyridin-2-yl)-6-((4-(9-methyl-3,9-diazaspiro[5.5]undecan-3-yl)phenyl)amino)-1H-pyrazolo[3,4-d]pyrimidin-3(2H)-one] returned an IC50 of 17.4 nM. The value for `C=CCn1c(=O)c2cnc(Nc3ccc(N4CCC5(CCN(C)CC5)CC4)cc3)nc2n1-c1cccc(N2CCNC2=O)n1` [Embodiment 58, 2-allyl-6-((4(9-methyl-3,9-diazaspiro[5.5]undecan-3-yl)phenyl)amino)-1-(6-(2-oxo-1-imidazolidinyl)pyridin-2-yl)-1H-pyrazolo[3,4-d]pyrimidin-3(2H)-one] was 73 nM; that for `C=CCn1c(=O)c2cnc(Nc3ccc(N4CCC5(CCN(C(=O)OC)CC5)CC4)cc3)nc2n1-c1cccc(C(=O)N(C)C)n1` [Compound 70, methyl-9-(4-((2-allyl-1-(6-(dimethylaminoformyl)pyridin-2-yl)-3-oxo-2,3-dihydro-1H-pyrazolo[3,4-d]pyrimidin-6-yl)amino)phenyl)-3,9-diazaspiro[5.5]undecan-3-carboxylate] was 20.3 nM; that for `C=CCn1c(=O)c2cnc(Nc3ccc(N4CCC5(CCN(C)CC5)CC4)cc3)nc2n1-c1cccc(OC2COC2)n1` [Embodiment 53, 2-allyl-6-((4(9-methyl-3,9-diazaspiro[5.5]undecan-3-yl)phenyl)amino)-1-(6-(oxetan-3-yloxy)pyridin-2-yl)-1H-pyrazolo[3,4-d]pyrimidin-3(2H)-one] was 63 nM. To `C=CCn1c(=O)c2cnc(Nc3ccc(N4CCC5(CCN(C(=O)OC)CC5)CC4)cc3)nc2n1-c1cccc(C2(O)COC2)n1` [Compound 71, methyl-9-(4-((2-allyl-1-(6-(3-hydroxyoxetan-3-yl)pyridin-2-yl)-3-oxo-2,3-dihydro-1H-pyrazolo[3,4-d]pyrimidin-6-yl)amino)phenyl)-3,9-diazaspiro[5.5]undecan-3-carboxylate] belongs 15.7 nM; to `C=CCn1c(=O)c2cnc(Nc3ccc(N4CCC5(CCN(C)CC5)CC4)cc3)nc2n1-c1cccc(C(C)(F)F)n1` [Embodiment 49, 2-allyl-1-(6-(1,1-difluoroethyl)pyridin-2-yl)-6-((4-(9-methyl-3,9-diazaspiro[5.5]undecan-3-yl)phenyl)amino)-1H-pyrazolo[3,4-d]pyrimidin-3(2H)-one], 3.1 nM; to `C=CCn1c(=O)c2cnc(Nc3ccc(N4CCC5(CCN(CC(F)F)CC5)CC4)cc3)nc2n1-c1cccc(C(C)(C)O)n1` [Embodiment 61], 15.7 nM. The value for `C=C(F)Cn1c(=O)c2cnc(Nc3ccc(N4CCC5(CCN(C)CC5)CC4)cc3)nc2n1-c1cccc(C(C)(C)O)n1` [Compound 79, 2-(2-fluoroallyl)-1-(6-(2-hydroxypropan-2-yl)pyridin-2-yl)-6-((4-(9-methyl-3,9-diazaspiro[5.5]undecan-3-yl)phenyl)amino)-1H-pyrazolo[3,4-d]pyrimidin-3(2H)-one] was 43 nM.

Regarding `C=CCn1c(=O)c2cnc(Nc3ccc(N4CCC5(CCN(C)CC5)CC4)cc3)nc2n1-c1ccccn1` [Embodiment 3, 2-allyl-6-((4-(9-methyl-3,9-diazaspiro[5.5]undecan-3-yl)phenyl)amino)-1-(pyridin-2-yl)-1H-pyrazolo[3,4-d]pyrimidin-3(2H)-one], the IC50 turned out to be 24.6 nM.

For `C=CCn1c(=O)c2cnc(Nc3ccc(N4CCC5(CCN(C)CC5)CC4)cc3)nc2n1-c1cccc(C(N)=O)n1` [Embodiment 13, 6-(2-allyl-6-((4-(9-methyl-3,9-diazaspiro[5.5]undecan-3-yl)phenyl)amino)-3-oxo-2,3-dihydro-1H-pyrazolo[3,4-d]pyrimidin-1-yl)picolinamide], the half-inhibitory concentration (IC50) was 42 nM.

As to `C=CCn1c(=O)c2cnc(Nc3ccc(N4CCC5(CCN(C)CC5)CC4)cc3)nc2n1-c1cccc(O[C@H]2CCOC2)n1` [Embodiment 55, (S)-2-allyl-6-((4(9-methyl-3,9-diazaspiro[5.5]undecan-3-yl)phenyl)amino)-1-(6-((tetrahydrofuran-3-yl)oxy)pyridin-2-yl)-1H-pyrazolo[3,4-d]pyrimidin-3(2H)-one], the IC50 was found to be 90 nM. To `C=CCn1c(=O)c2cnc(Nc3ccc(N4CCC5(CCN(C)CC5)CC4)cc3)nc2n1-c1cccc(C(=O)NC)c1` [Embodiment 17, 3-(2-allyl-6-((4-(9-methyl-3,9-diazaspiro[5.5]undecan-3-yl)phenyl)amino)-3-oxo-2,3-dihydro-1H-pyrazolo[3,4-d]pyrimidin-1-yl)-N-methylbenzamide] belongs 42.5 nM; to `CN1CCC2(CC1)CCN(c1ccc(Nc3ncc4c(=O)n(CC(F)F)n(-c5ccccc5)c4n3)cc1)CC2` [Embodiment 22, 2-(2,2-difluroethyl)-6-((4-(9-methyl-3,9-diazaspiro[5.5]undecan-3-yl)phenyl)amino)-1-phenyl-1H-pyrazolo[3,4-d](2H)-one], 239 nM. To `C=CCn1c(=O)c2cnc(Nc3ccc(N4CCC5(CCN(C)CC5)CC4)cc3)nc2n1-c1nccs1` [Embodiment 9, 2-allyl-6-((4-(9-methyl-3,9-diazaspiro[5.5]undecan-3-yl)phenyl)amino)-1-(thiazol-2-yl)-1H-pyrazolo[3,4-d]pyrimidin-3(2H)-one] belongs 109 nM; to `C=CCn1c(=O)c2cnc(Nc3ccc(N4CCC5(CCN(C)CC5)CC4)cc3)nc2n1-c1ccc(Cl)cc1` [Embodiment 12, 2-allyl-1-(4-chlorophenyl)-6-((4-(9-methyl-3,9-diazaspiro[5.5]undecan-3-yl)phenyl)amino)-1H-pyrazolo[3,4-d]pyrimidin-3(2H)-one], 25.3 nM; to `CCCn1c(=O)c2cnc(Nc3ccc(N4CCC5(CCN(C)CC5)CC4)cc3)nc2n1-c1cccc(C(C)(C)O)n1` [Embodiment 24, 1-(6-(2-hydroxypropan-2-yl)pyridin-2-yl)-6-((4-(9-methyl-3,9-diazaspiro[5.5]undecan-3-yl)phenyl)amino)-2-propyl-1H-pyrazolo[3,4-d]pyrimidin-3(2H)-one], 48.8 nM. `C=CCn1c(=O)c2cnc(Nc3ccc(N4CCC5(CCN(C)CC5)CC4)cc3)nc2n1-c1cccc(N2CCOC2=O)n1` [Embodiment 57, 3-(6-(2-allyl-6((4-(9-methyl-3,9-diazaspiro[5.5]undecan-3-yl)phenyl)amino)-3-oxo-2,3-dihydro-1H-pyrazolo[3,4-d]pyrimidin-1-yl)pyridin-2-yl)oxazolidin-2one]: the IC50 turned out to be 47 nM. `C=CCn1c(=O)c2cnc(Nc3ccc(N4CCC5(CCN(C)CC5)CC4)cc3)nc2n1-c1ccc(Cl)cn1` [Embodiment 26, 2-allyl-1-(5-chloropyridin-2-yl)-6-((4-(9-methyl-3,9-diazaspiro[5.5]undecan-3-yl)phenyl)amino)-1H-pyrazolo[3,4-d]pyrimidin-3(2H)-one] displayed a half-inhibitory concentration (IC50) of 14.1 nM. To `C=CCn1c(=O)c2cnc(Nc3ccc(N4CCC5(CCN(C)CC5)CC4)cc3)nc2n1-c1cncnc1` [Embodiment 6, 2-allyl-6-((4-(9-methyl-3,9-diazaspiro[5.5]undecan-3-yl)phenyl)amino)-1-(pyrimidin-5-yl)-1H-pyrazolo[3,4-d]pyrimidin-3(2H)-one] belongs 102 nM.

`C=CCn1c(=O)c2cnc(Nc3ccc(N4CCC5(CCN(C)CC5)CC4)cc3)nc2n1-c1cccc(O[C@@H]2CCOC2)n1` [Embodiment 52, (R)-2-allyl-6-((4(9-methyl-3,9-diazaspiro[5.5]undecan-3-yl)phenyl)amino)-1-(6-((tetrahydrofuran-3-yl)oxy)pyridin-2-yl)-1H-pyrazolo[3,4-d]pyrimidin-3(2H)-one] returned an IC50 of 71 nM. `C=CCn1c(=O)c2cnc(Nc3ccc(N4CCC5(CCN(CCF)CC5)CC4)cc3)nc2n1-c1cccc(C(C)(C)O)n1` [Embodiment 60] returned an IC50 of 14.8 nM. Compared with the last compound, the IC50 is about 4.8-fold lower.

Turning to `C=CCn1c(=O)c2cnc(Nc3ccc(N4CCC5(CCN(C)CC5)CC4)cc3)nc2n1-c1ccsc1` [Embodiment 8, 2-allyl-6-((4-(9-methyl-3,9-diazaspiro[5.5]undecan-3-yl)phenyl)amino)-1-(thiophen-3-yl)-1H-pyrazolo[3,4-d]pyrimidin-3(2H)-one], the IC50 stood at 51.9 nM. The value for `C=CCn1c(=O)c2cnc(Nc3ccc(N4CCC5(CCNCC5)CC4)cc3)nc2n1-c1ccccc1` [Embodiment 2, 6-((4-(3,9-diazaspiro[5.5]undecan-3-yl)phenyl)amino)-2-allyl-1-phenyl-1H-pyrazolo[3,4-d]pyrimidin-3(2H)-one] was 43.6 nM. As for `C=CCn1c(=O)c2cnc(Nc3ccc(N4CCC5(CCN(C)CC5)CC4)cc3)nc2n1-c1cccc(F)n1` [Embodiment 27, 2-allyl-1-(6-fluoropyridin-2-yl)-6-((4-(9-methyl-3,9-diazaspiro[5.5]undecane-3-yl)phenyl)amino)-1H-pyrazolo[3,4-d]pyrimidin-3(2H)-one], the IC50 was found to be 24.9 nM.
